Test systems include CAKI-1; CCRF-CEM; DU-145; HCC 2998; HL-60; HOP-62; HT-29; MOLT-4; Malme-3M; NCI-H23; NCI-H522; OVCAR-8; PC-3; SF-268; SK-OV-3; SN12C; SNB-19; SNB-75; U-251; UACC-62.
What all share (test): inhibition of tumour cell growth, NCI panel, 48 h

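Five concentrations, 48 hours, 96-well plates. The concentration for 50% growth inhibition is given as GI50.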 Active and inactive are the calls of the source. Cut-off read from the data, not from the text of the source: active = GI50 up to about 1.1 µM and inactive = higher.

For `N#Cc1c(C#N)c(SSc2c(C#N)c(C#N)c(N)n2-c2ccc(F)cc2)n(-c2ccc(F)cc2)c1N`, the GI50 in the assay with CAKI-1 is 8.17 µM (inactive); in the assay on CCRF-CEM, 2.02 µM (inactive); with DU-145, 16 µM (inactive); with HCC 2998 it was 21.8 µM (inactive); with HL-60, 2 µM (inactive); with HOP-62, 17.8 µM (inactive). The GI50 was 20.5 µM (inactive) in the assay with HT-29; 0.619 µM (active) in the assay on MOLT-4; 1.87 µM (inactive) in the assay on Malme-3M; 6.73 µM (inactive) in the assay with NCI-H23; 1.7 µM (inactive) with NCI-H522; 6.55 µM (inactive) with OVCAR-8. Besides, the GI50 with PC-3 was 17.9 µM (inactive); with SF-268, 17.5 µM (inactive); with SK-OV-3, 17.5 µM (inactive); in the assay on SN12C it was 16.6 µM (inactive); in the assay with SNB-19, 21.6 µM (inactive); with SNB-75 it was 5.77 µM (inactive). For the same molecule, the GI50 in the assay on U-251 is 20.2 µM (inactive); in the assay with UACC-62, 16.9 µM (inactive).

Regarding `O=C1/C(=C/c2cccc([N+](=O)[O-])c2)CCCc2ccccc21`, the GI50 in the assay on CAKI-1 is 16.5 µM (inactive); in the assay on CCRF-CEM, 2.93 µM (inactive); in the assay with DU-145, 15 µM (inactive); in the assay with HCC 2998, 10.3 µM (inactive); in the assay on HL-60, 4.94 µM (inactive); in the assay on HOP-62, 15.6 µM (inactive). The GI50 was 9.84 µM (inactive) in the assay on HT-29; 4.95 µM (inactive) in the assay with MOLT-4; 10.3 µM (inactive) in the assay on Malme-3M; 15.8 µM (inactive) with NCI-H23; 4.74 µM (inactive) in the assay on NCI-H522; 12.7 µM (inactive) in the assay on OVCAR-8. For the same molecule, the GI50 in the assay with PC-3 is 11 µM (inactive); with SF-268, 4.82 µM (inactive); in the assay on SK-OV-3, 29.4 µM (inactive); in the assay on SN12C it was 17.3 µM (inactive); in the assay on SNB-19, 15.2 µM (inactive); in the assay with SNB-75 it was 15.1 µM (inactive). For the same molecule, the GI50 was 8.71 µM (inactive) in the assay on U-251 and 10.1 µM (inactive) in the assay with UACC-62.

Source of the values: ChEMBL document CHEMBL1201862, “PubChem BioAssay data set” (2004).
